Measured values as given in ChEMBL document CHEMBL4014283, “Structural insights of SmKDAC8 inhibitors: Targeting Schistosoma epigenetics through a combined structure-based 3D QSAR, in vitro and synthesis strategy” (Bioorg Med Chem, 2017).

Assays:
[1] = biological target: T1, Histone deacetylase 8 (Schistosoma mansoni) (UniProt A5H660); assay: Inhibition of Schistosoma mansoni KDAC8 at 30 uM using (FAM)-labeled peptide as substrate after 60 mins by microfluidic assay
T1 sequence (whole entry): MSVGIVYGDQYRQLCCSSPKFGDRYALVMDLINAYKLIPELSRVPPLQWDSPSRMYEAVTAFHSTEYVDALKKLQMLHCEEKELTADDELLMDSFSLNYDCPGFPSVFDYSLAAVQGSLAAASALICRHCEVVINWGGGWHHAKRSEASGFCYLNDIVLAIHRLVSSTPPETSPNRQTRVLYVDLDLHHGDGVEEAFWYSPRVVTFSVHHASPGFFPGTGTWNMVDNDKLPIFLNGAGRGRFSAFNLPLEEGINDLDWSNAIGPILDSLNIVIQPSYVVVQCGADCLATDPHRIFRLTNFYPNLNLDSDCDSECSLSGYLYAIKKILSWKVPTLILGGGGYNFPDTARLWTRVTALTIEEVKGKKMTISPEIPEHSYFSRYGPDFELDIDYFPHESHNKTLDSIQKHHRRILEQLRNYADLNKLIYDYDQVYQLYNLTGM

Histone deacetylase 8 = biological target: T2, Histone deacetylase 8 (Schistosoma mansoni, UniProt A5H660); assay: Inhibition of Schistosoma mansoni KDAC8 using (FAM)-labeled peptide as substrate after 60 mins by microfluidic assay
T2 sequence (A5H660 whole entry): T1 sequence (whole entry)

SMILES | inhibition [1] [%] | IC50 (Histone deacetylase 8; read-out: IC50) [µM] | pIC50 (Histone deacetylase 8) | IC50 (Histone deacetylase 8; read-out: pIC50 (converted)) [µM]
CC[C@H](C)[C@@H]1N=C(c2ccccc2)c2ccccc2N(CCCCC(=O)O)C1=O | 0 | > 30 | – | –
O=C(CCCCN1C(=O)[C@H](Cc2ccc(O)cc2)N=C(c2ccccc2)c2ccccc21)NO | 0 | > 30 | – | –
CC[C@H](C)[C@@H]1N=C(c2ccccc2)c2ccccc2N(CCCCC(=O)OC)C1=O | 0 | > 30 | – | –
COC(=O)CCCCN1C(=O)[C@H](CC(=O)OC(C)(C)C)N=C(c2ccccc2)c2ccccc21 | 0 | > 30 | – | –
COC(=O)CCCCN1C(=O)[C@H](CCC(=O)OC(C)(C)C)N=C(c2ccccc2)c2ccccc21 | 0 | > 30 | – | –
CC(C)(C)OC(=O)C[C@@H]1N=C(c2ccccc2)c2ccccc2N(CCCCC(=O)O)C1=O | 0 | > 30 | – | –
O=C(CCCNC(=O)C[C@@H]1N=C(c2ccccc2)c2ccccc2NC1=O)NO | 70.3 | 12.8 | – | –
O=C(CCCCN1C(=O)[C@H](CCC(=O)NO)N=C(c2ccccc2)c2ccccc21)NO | 33.5 | > 30 | – | –
O=C(CCCCN1C(=O)[C@H](CCC(=O)NC(c2ccccc2)(c2ccccc2)c2ccccc2)N=C(c2ccccc2)c2ccccc21)NO | 32.1 | > 30 | – | –
COC(=O)CCCCN1C(=O)[C@H](Cc2ccc(OC(C)(C)C)cc2)N=C(c2ccccc2)c2ccccc21 | 0 | > 30 | – | –
CC(C)[C@@H]1NC(=O)[C@@H]2CCCN2C(=O)[C@@H]2CCCN2C(=O)C[C@@H](C(=O)NCCCC(=O)NO)NC1=O | 32 | > 30 | – | –
O=C(CCCCN1C(=O)[C@H](Cc2ccccc2)N=C(c2ccccc2)c2ccccc21)NO | 14.4 | > 30 | – | –
CC(C)(C)OC(=O)CC[C@H]1N=C(c2ccccc2)c2ccccc2NC1=O | 12.3 | > 30 | – | –
COc1ccc(Cn2ccc3ccc(C(=O)NO)cc32)cc1 | – | – | 1.03 to 6.36 | –
CCC(=O)CCCCC[C@@H]1NC(=O)C2CCCCN2C(=O)[C@H](C(C)CC)NC(=O)[C@H](Cc2cn(OC)c3ccccc23)NC1=O (some centres undefined) | – | 28.8 | – | –
Cc1[nH]c2ccccc2c1CCNCc1ccc(/C=C/C(=O)NO)cc1 [PANOBINOSTAT] | – | 0.45 | – | –
CC(OCc1ccccc1)[C@@H]1N=C(c2ccccc2)c2ccccc2NC1=O (single isomer, unassigned) | 0 | > 30 | – | –
O=C(O)C[C@H]1N=C(c2ccccc2)c2ccccc2NC1=O | 0 | > 30 | – | –
CC(C)(C)OC[C@@H]1N=C(c2ccccc2)c2ccccc2N(CCCCC(=O)NO)C1=O | 15.7 | > 30 | – | –
CSCC[C@@H]1N=C(c2ccccc2)c2ccccc2N(CCCCC(=O)NO)C1=O | 19.3 | > 30 | – | –
O=C(NO)c1sc2ccccc2c1Cl | – | – | – | 4.37
COC(=O)CCCCN1C(=O)[C@H](CC(=O)NC(c2ccccc2)(c2ccccc2)c2ccccc2)N=C(c2ccccc2)c2ccccc21 | 2.19 | > 30 | – | –

SMILES | inhibition [1] [%] | IC50 (Histone deacetylase 8; read-out: IC50) [µM] | pIC50 (Histone deacetylase 8) | IC50 (Histone deacetylase 8; read-out: pIC50 (converted)) [µM]
CC(C)(C)OC(=O)n1c(C[C@@H]2N=C(c3ccccc3)c3ccccc3N(CCCCC(=O)O)C2=O)cc2ccccc21 | 0 | > 30 | – | –
C[C@H]1Sc2ccc(C(=O)NO)cc2NC1=O | – | – | – | 1.48
CC(C)C[C@@H]1N=C(c2ccccc2)c2ccccc2N(CCCCC(=O)O)C1=O | 0 | > 30 | – | –
O=C(CCCCN1C(=O)CN=C(c2ccccc2)c2ccccc21)NO | 39.7 | > 30 | – | –
COC(=O)CCCCN1C(=O)[C@H]([C@@H](C)OCc2ccccc2)N=C(c2ccccc2)c2ccccc21 | 0 | > 30 | – | –
CC(C)(C)Oc1ccc(C[C@@H]2N=C(c3ccccc3)c3ccccc3NC2=O)cc1 | 0 | > 30 | – | –
O=C(O)C[C@@H]1N=C(c2ccccc2)c2ccccc2N(CCCCC(=O)NO)C1=O | 12.4 | > 30 | – | –
COC(=O)CCCCN1C(=O)[C@H](CCCCNC(=O)OC(C)(C)C)N=C(c2ccccc2)c2ccccc21 | 0 | > 30 | – | –
CC(C)(C)Oc1ccc(C[C@@H]2N=C(c3ccccc3)c3ccccc3N(CCCCC(=O)NO)C2=O)cc1 | 74 | 10.3 | – | –
Cc1c(C)c(S(=O)(=O)NC(=N)NCCC[C@@H]2N=C(c3ccccc3)c3ccccc3NC2=O)c(C)c2c1OC(C)(C)C2 | 0 | > 30 | – | –
CSCC[C@@H]1N=C(c2ccccc2)c2ccccc2N(CCCCC(=O)O)C1=O | 0 | > 30 | – | –
O=C(O)CCCCN1C(=O)CN=C(c2ccccc2)c2ccccc21 | 0 | > 30 | – | –
O=C(CC[C@@H]1N=C(c2ccccc2)c2ccccc2NC1=O)NO | 25.9 | > 30 | – | –
O=C(CCCCN1C(=O)[C@H](CC(=O)NO)N=C(c2ccccc2)c2ccccc21)NO | 5.21 | > 30 | – | –
CC(C)[C@@H]1N=C(c2ccccc2)c2ccccc2N(CCCCC(=O)NO)C1=O | 20.6 | > 30 | – | –
O=C1Nc2ccccc2C(c2ccccc2)=N[C@H]1Cc1cn(C(c2ccccc2)(c2ccccc2)c2ccccc2)cn1 | 9.68 | > 30 | – | –
CC(C)(C)OC(=O)C[C@@H]1N=C(c2ccccc2)c2ccccc2NC1=O | 0 | > 30 | – | –
CC(/C=C/C(=O)NO)=C\[C@@H](C)C(=O)c1ccc(N(C)C)cc1 [TRICHOSTATIN] | – | 3.62 | – | –
CC(C)(C)Oc1ccc(C[C@@H]2N=C(c3ccccc3)c3ccccc3N(CCCCC(=O)O)C2=O)cc1 | 0 | > 30 | – | –
CC(C)[C@@H]1N=C(c2ccccc2)c2ccccc2N(CCCCC(=O)O)C1=O | 0 | > 30 | – | –
O=C(CCCNC(=O)CC[C@@H]1N=C(c2ccccc2)c2ccccc2NC1=O)NO | 81.7 | 6.53 | – | –
O=C(O)CC[C@H]1N=C(c2ccccc2)c2ccccc2NC1=O | 0 | > 30 | – | –

SMILES | inhibition [1] [%] | IC50 (Histone deacetylase 8; read-out: IC50) [µM] | pIC50 (Histone deacetylase 8) | IC50 (Histone deacetylase 8; read-out: pIC50 (converted)) [µM]
CC(C)(C)SC[C@H]1N=C(c2ccccc2)c2ccccc2N(CCCCC(=O)O)C1=O | 0 | > 30 | – | –
O=C(CS)NCCCCCC(=O)Nc1ccccc1 | – | – | – | 50.1
CN(C)c1ccc(C(=O)NCCCCCCC(=O)NO)cc1 | – | – | – | 3.16
O=C(CCCCCN1C(=O)c2cccc3cccc(c23)C1=O)NO | – | 1.77 | – | –
Cc1ccc(CN(Cc2ccc(C(=O)NO)cc2)S(=O)(=O)c2ccc(F)c(C)c2)cc1 | – | – | – | 5.62
CN(C)Nc1cccc(C(=O)NO)c1 | – | – | – | 1.58
CCCCCC(=O)NO | – | – | – | 2.51
O=C(NO)C1CCN(S(=O)(=O)c2ccc3c(c2)CCC3)CC1 | – | – | – | 3.02
O=C(CCCCCCC(=O)Nc1cccc(C(=O)O)c1)NO | – | – | – | 1.91
O=C(CCCCCC(=O)N/N=C/c1ccc(-c2ccccc2)cc1)NO | – | – | – | 0.891
CN1CCc2c(c3ccccc3n2Cc2ccc(C(=O)NO)cc2)C1 [TUBASTATIN A] | – | – | – | 1.48
N[C@H](Cc1ccc(Cl)cc1Cl)C(=O)N1Cc2ccccc2C1 | – | 29.1 | – | –
CN(C)c1ccc(C(=O)NCC2CCC(C(=O)NO)CC2)cc1 (centres undefined) | – | – | – | 12
Cn1cc(C2=C(c3cn(CCCCCC(=O)NO)c4ccccc34)C(=O)NC2=O)c2ccccc21 | – | – | – | 1.41
CC(C)[C@@H]1NC(=O)[C@H]2CCCN2C(=O)[C@@H]2CCCN2C(=O)C[C@@H](C(=O)NCCSSCCNC(=O)[C@@H]2CC(=O)N3CCC[C@H]3C(=O)N3CCC[C@@H]3C(=O)N[C@@H](C(C)C)C(=O)N2)NC1=O | 0 | – | – | –
CN(C)c1ccc(C(=O)NCc2ccc(C(=O)NO)cc2)cc1 | – | – | – | 2.88
CC(C)[C@@H]1NC(=O)[C@@H]2CCCN2C(=O)[C@H]2CCCN2C(=O)C[C@H](C(=O)NCCCO)NC1=O | 0 | – | – | –
O=C(NO)c1cccc(NN(Cc2ccccc2)Cc2ccccc2)c1 | – | – | – | 9.33
COC(=O)[C@H](Cc1ccccc1)NC(=O)CCCCCCCCC(=O)NO | – | – | – | 0.794
COC(=O)CCCNC(=O)[C@H]1CC(=O)N2CCC[C@@H]2C(=O)N2CCC[C@H]2C(=O)N[C@@H](C(C)C)C(=O)N1 | 0 | – | – | –
CC(C)[C@@H]1NC(=O)[C@@H]2CCCN2C(=O)[C@H]2CCCN2C(=O)C[C@@H](C(=O)NCCSSCCN)NC1=O | 0 | – | – | –
